Experimental data reported in US6762200B2, “Oxa(thia)zolidine derivative and anti-inflammatory drug” (Nippon Soda Co. Ltd., priority 2000, dated 2004).
Read-outs that look alike come from different tables or passages of the source.

Legend:
IV-cPLA(2) = biological target: T1, IV-cPLA(2) (Homo sapiens, UniProt P47712); experiment: PLA(2) activity, hydrolysis of bis-BODIPY FL C11-PC in activated U937 cells; type: cell-based
T1 sequence (P47712 1-749): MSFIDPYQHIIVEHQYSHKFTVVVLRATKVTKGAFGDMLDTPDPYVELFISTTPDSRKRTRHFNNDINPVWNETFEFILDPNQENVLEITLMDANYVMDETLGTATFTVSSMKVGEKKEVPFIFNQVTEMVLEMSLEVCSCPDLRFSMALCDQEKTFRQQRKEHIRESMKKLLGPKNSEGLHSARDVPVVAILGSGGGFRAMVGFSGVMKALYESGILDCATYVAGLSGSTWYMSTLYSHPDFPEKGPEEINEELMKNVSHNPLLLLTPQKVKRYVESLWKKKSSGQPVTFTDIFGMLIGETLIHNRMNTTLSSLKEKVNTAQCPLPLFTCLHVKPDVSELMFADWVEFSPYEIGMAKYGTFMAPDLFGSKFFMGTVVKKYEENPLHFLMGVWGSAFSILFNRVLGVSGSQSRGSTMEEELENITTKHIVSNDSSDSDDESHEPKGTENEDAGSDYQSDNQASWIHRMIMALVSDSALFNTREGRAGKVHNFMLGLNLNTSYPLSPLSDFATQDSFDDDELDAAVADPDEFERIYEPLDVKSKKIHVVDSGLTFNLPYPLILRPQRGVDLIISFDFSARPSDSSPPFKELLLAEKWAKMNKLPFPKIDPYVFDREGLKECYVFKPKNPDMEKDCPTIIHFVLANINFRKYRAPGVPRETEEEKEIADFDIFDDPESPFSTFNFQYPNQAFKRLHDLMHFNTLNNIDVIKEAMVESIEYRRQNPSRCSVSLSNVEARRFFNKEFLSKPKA
Experimental: The PLA(2) activity was measured by quantitatively analyzing the fluorescent product of hydrolysis from 1,2-bis-(4,4-difluoro-5,7-dimethyl-4-bora-3a,4a-diaza-s-indecene-3-undecanoyl)-sn-glycero-3-phosphocholine (hereinafter referred to bis-BODIPY®FL C11—PC, Molecular Probes, Inc., B-7701) using activated U937 cells (human monoblastic lymphoma cell line) by inflammatory stimulus (Meshulam, T. et al., The journal of Biological Chemistry 267 (30): 21465-21470 (1992); and Solito, E. et al., British Journal of Pharmacology 124: 1675-1683 (1998).). The substrate bis-BODIPY®FL C11—PC is incorporated into cellular membranes, the proximity of the BODIPY FL fluorophores on adjacent phospholipid acyl chains causes fluorescence self-quenching. Separation of the fluorophores upon hydrolytic cleavage of one of the acyl chains by PLA(1) or the PLA(2) results in increased fluorescence. In the activated U937 by inflammatory stimulus, it is shown that this substrate should be cleaved enzymatically by IV-cPLA(2) from the feature of its behaviors including sensitivity profiles against the inhibitors.
The human cell line U937 was purchased from Dai-Nippon Pharmaceuticals Co., Ltd. The cells were maintained by transferring every 3-4 days into RPMI 1640 medium (Sigma Chemical Co., R6504) supplemented with heat-inactivated 10% fetal bovine serum (Fetal Bovine Serum, Sigma Chemical Co., F 4135) in a 5% CO2 humidified atmosphere at 37° C. The cells were transferred into the culture medium described above, containing 1.2% (v/v) dimethylsulfoxide (hereinafter referred to as […], Nacalai tesque Co., Ltd., D 134-45), and pre-cultured for 96 to 120 hours so as to differentiate into the macrophage-like cells to be provided for the assay. The macrophage-like cells were collected and washed by centrifugation with the Assay medium (Dulbecco's phosphate buffered saline (hereinafter referred to as PBS)-2.2 mM glucose-2.5 μm albumin). Then, Phorbol 12-Myristate 13-Acetate (hereinafter referred to as TPA, Sigma Chemical Co., P 8139) was added to the Assay medium to be 1×10^−8M as the final concentration. Then, the macrophage-like cells were further cultured for an hour to be activated (Rzigalinski, B. A. & Rosenthal, M. D., Biochimica et Biophysica Acta 1223: 219-225 (1994); and Gonchar, M. V. et al., Biochemical and Biophysical Research Communication, 249: 829-832 (1998).).
For preparing substrate liposome suspension, bis-BODIPY®FL C11—PC was combined with phosphatidylcholine (Sigma Chemical Co., P 7769) at 1:9 molar ratio in chloroform, and dried under nitrogen flow. The dried mixture was suspended with the Assay medium at 100 μg/mL, voltexed and sonicated for an hour on ice under dark condition.
The test compound was dissolved with DMSO at 30 mM, and the solution diluted with either DMSO or the Assay medium before addition into the reaction mixture. The DMSO concentration in the reaction mixture was controlled so as to be no more than 0.1%. The 30-fold concentration of test compound solution was put into each well of MICRPTEST™ Tissue Culture Plate, 96 Well (Falcon, 3072) at a rate of 2.5 μL/well. To the respective well was added 25 μL/well of the activated U937 cell suspension ([…]), and the cells were pre-cultured for 120 min. at 37° C. in a 5% CO2 atmosphere incubator. 47.5 μL/well of the substrate liposome suspension with 1.5×10^−6M A23187 (Sigma Chemical Co., C 7522) was added into each well to prepare 75 μL/well of the total reaction mixture, followed by culture for 30 min. under the same conditions with shielding against light. 100 μL/well of 0.1% GEDTA (Dojindo Laboratories Co. Ltd., 348-01311) methanol solution was added into each well and mixed to stop the reaction. […]

TPA-induced ear edema = type: in vivo, ICR-strain male mouse; details: topical, 6 hours after TPA
Experimental: This test was carried out referring to the method of Carlson, R. P. et al. (Agents and Actions, 17(2): 197-204 (1985).) and the method of Chang, J. (European Journal of Pharmacology, 142: 197-205 (1987).). […] 6 hours later, the thickness of each ear at the particular part was respectively measured three times using a digimatic micrometer to calculate the mean value. Ear edema was determined by subtracting the mean thickness of the left ear as without treatment from that of the right ear as TPA-applied. […] As the positive control, 100 mg/kg of Hydrocortisone (Sigma Chemical Co., H 4001) suspension was applied to the mouse similarly as for the compound of the present invention.

Row | Structure (SMILES) | Inhibition (%) (IV-cPLA(2); 0.1 μM) | also measured
1 | CC1C(c2ccc(-c3ccccc3)cc2)OC(=O)N1C(=O)Nc1ccc(Cl)cc1 (centres unmarked) [Compound 2-186] | 75 | 
2 | CC1C(c2cnc3ccccc3c2)OC(=O)N1C(=O)NC1CCCCO1 (centres unmarked) [Compound 2-151] |  | Inhibition (%) (IV-cPLA(2); 0.01 μM): 64%
3 | Cc1ccc(C2OC(=O)N(C(=O)NC3CCCCO3)C2C)cc1 (centres unmarked) [Compound 2-170] | 82 | Ear Edema Inhibition (%) (TPA-induced ear edema; 0.3 mg/20 μL/ear × 2): 57%
4 | C=CC(=O)N=C1SC(c2ccc(C)cc2)C(C)N1C(=O)NC1CCCCC1 (centres unmarked) [Compound 1-49] | 91 | 
5 | Cc1ccc(C2OC(=O)N(C(=O)NC3CCOCC3)C2C)cc1 (centres unmarked) [Compound 2-159] | 95 | 
6 | CC1C(c2ccc3ccccc3c2)OC(=O)N1C(=O)NC1CCCCO1 (centres unmarked) [Compound 2-115] | 63 | 
7 | Cc1ccc(C2OC(=O)N(C(=O)NC3CCCCO3)C2C)cc1C (centres unmarked) [Compound 2-156] | 88 | Ear Edema Inhibition (%) (TPA-induced ear edema; 1 mg/20 μL/ear × 2): 48%
8 | CC1C(c2cccnc2)SC(=O)N1C(=O)NC1CCCCC1 (centres unmarked) [Compound 2-145] | 72 | 
9 | CC1C(c2ccc(-c3ccccc3)cc2)OC(=O)N1C(=S)NC1CCCCC1 (centres unmarked) [Compound 2-75] | 83 | 
10 | CC1C(c2ccc(Cl)cc2)SC(=O)N1C(=O)NS(=O)(=O)c1ccccc1Cl (centres unmarked) [Compound 2-36] | 61 | Ear Edema Inhibition (%) (TPA-induced ear edema; 0.3 mg/20 μL/ear × 2): 41%
11 | CC(C)N=C1OC(c2ccc(Cl)cc2)C(C)N1C(=O)NC1CCCCC1 (centres unmarked) [Compound 1-28] | 93 | Ear Edema Inhibition (%) (TPA-induced ear edema; 1 mg/20 μL/ear × 2): 36%
12 | Cc1ccc(C2OC(=NC(=O)c3c(C)cccc3Cl)NC2C)cc1 (centres unmarked) [Compound 1-73] | 68 | Ear Edema Inhibition (%) (TPA-induced ear edema; 1 mg/40 μL/ear × 2): 86%
13 | CC1C(c2ccc(Cl)cc2)SC(=O)N1C(=O)NN(C)C (centres unmarked) [Compound 2-22] | 100 | 
14 | Cc1ccc(C2SC(=NC(=S)NC3CCCCC3)NC2C)cc1 (centres unmarked) [Compound 1-112] |  | Ear Edema Inhibition (%) (TPA-induced ear edema; 1 mg/40 μL/ear × 2): 69%; Inhibition (%) (IV-cPLA(2); 1 μM): 72%
15 | COC1CCCC(NC(=O)N2C(=O)OC(c3ccc4ccccc4c3)C2C)O1 (centres unmarked) [Compound 2-133] |  | Inhibition (%) (IV-cPLA(2); 1 μM): 75%
16 | CC1C(c2ccc(Cl)cc2)SC(=O)N1C(=S)NCCN1CCOCC1 (centres unmarked) [Compound 2-37] | 63 | 
17 | CCOC(=O)C(C)NC(=O)N1C(=O)OC(c2ccc(C)cc2)C1C (centres unmarked) [Compound 2-54] | 95 | Ear Edema Inhibition (%) (TPA-induced ear edema; 0.3 mg/20 μL/ear × 2): 64%
18 | CCOC(=O)CN=C1NC(C)C(c2ccc(C)cc2)S1 (centres unmarked) [Compound 1-35] | 57 | 
19 | O=C(NC1CCCCO1)N1CC(c2ccc3ccccc3c2)OC1=O (centres unmarked) [Compound 2-130] | 68 | 
20 | CC1C(c2ccc(Cc3ccccc3)cc2)OC(=O)N1C(=O)NC1CCCCO1 (centres unmarked) [Compound 2-117] | 82 | 
21 | CC1C(c2ccc3c(c2)CCCC3)OC(=O)N1C(=O)NC1CCCCO1 (centres unmarked) [Compound 2-125] | 62 | Ear Edema Inhibition (%) (TPA-induced ear edema; 1 mg/40 μL/ear × 2): 62%
22 | Cc1ccc(C2OC(=O)N(C(=O)NC(=O)c3c(F)cccc3F)C2C)cc1 (centres unmarked) [Compound 2-79] | 55 | 

Row | Structure (SMILES) | Inhibition (%) (IV-cPLA(2); 0.1 μM) | also measured
23 | CC1C(c2ccc(Cl)cc2)SC(=O)N1C(=O)Nc1ccncc1 (centres unmarked) [Compound 2-21] |  | Inhibition (%) (IV-cPLA(2); 1 μM): 100%
24 | CC1C(c2ccccc2)OC(=O)N1C(=S)NC1CCCCC1 (centres unmarked) [Compound 2-180] | 100 | 
25 | CN=C1OC(c2ccc(C)cc2)C(C)N1C(=O)Nc1ccc(Cl)cc1 (centres unmarked) [Compound 1-25] | 100 | 
26 | CC1C(c2ccc(Cl)cc2)SC(=NC#N)N1Cc1ccc(Cl)nc1 (centres unmarked) [Compound 1-5] | 66 | 
27 | CCNC(=O)N1C(=NNc2ccccc2)SC(c2ccc(Cl)cc2)C1C (centres unmarked) [Compound 1-77] |  | Inhibition (%) (IV-cPLA(2); 1 μM): 100%
28 | CC1C(c2ccccc2)OC(=O)N1C(=O)NC1CCCCO1 (centres unmarked) [Compound 2-155] | 95 | 
29 | Cc1ccc(C2OC(=O)N(C(=O)NN3CCN(C)CC3)C2C)cc1 (centres unmarked) [Compound 2-161] |  | Inhibition (%) (IV-cPLA(2); 1 μM): 65%
30 | Cc1ccc(C2OC(=O)N(C(=S)NC3CCCCC3)C2C)cc1C (centres unmarked) [Compound 2-182] | 91 | 
31 | CC1C(c2ccc(Cl)cc2)SC(=O)N1C(=O)NC1CCCCO1 (centres unmarked) [Compound 2-201] |  | Inhibition (%) (IV-cPLA(2); 1 μM): 94%
32 | Cc1ccc(N2C(=NC(=O)NC3CCCCC3)SC(c3ccc(Cl)cc3)C2C)cc1 (centres unmarked) [Compound 1-90] |  | Ear Edema Inhibition (%) (TPA-induced ear edema; 1 mg/20 μL/ear × 2): 41%
33 | Cc1ccc(C2OC(=O)N(C(=O)NCCCl)C2C)cc1 (centres unmarked) [Compound 2-48] | 77 | 
34 | Cc1ccc(C2OC(=O)N(C(=O)NC3CCSCC3)C2C)cc1 (centres unmarked) [Compound 2-157] | 96 | 
35 | CCN(C(C)C)S(=O)(=O)NC(=O)N1C(=O)OC(c2ccc3ccccc3c2)C1C (centres unmarked) [Compound 2-126] | 72 | 
36 | CC1NC(=N[N+](=O)[O-])SC1c1ccc(Cl)cc1 (centres unmarked) [Compound 1-11] | 88 | 
37 | CC1C(c2cccc3ccccc23)OC(=O)N1C(=O)NC1CCCCO1 (centres unmarked) [Compound 2-113] |  | Inhibition (%) (IV-cPLA(2); 1 μM): 72%
38 | O=C(NC1CCCCO1)N1CC(c2ccc(-c3ccccc3)cc2)OC1=O (centres unmarked) [Compound 2-78] |  | Inhibition (%) (IV-cPLA(2); 0.01 μM): 100%
39 | CCONC(=O)N1C(=O)OC(c2ccc(Oc3ccccc3)cc2)C1C (centres unmarked) [Compound 2-116] | 54 | 
40 | COS(=O)(=O)NC(=O)N1C(=O)OC(c2ccc(C)cc2)C1C (centres unmarked) [Compound 2-56] | 92 | 
41 | CC(=O)OCC(=O)[C@@]1(O)[C@H](C)C[C@H]2[C@@H]3CCC4=CC(=O)C=C[C@]4(C)[C@@]3(F)[C@@H](O)C[C@@]21C [DEX-Ac, Dexamathasone-21-acetate, reference compound] |  | Ear Edema Inhibition (%) (TPA-induced ear edema; 0.3 mg/20 μL/ear × 2): 49%; Ear Edema Inhibition (%) (TPA-induced ear edema; 1 mg/20 μL/ear × 2): 80%
42 | CC1C(c2ccc(-c3ccccc3)cc2)OC(=O)N1C(=O)Nc1ccc(Cl)cc1 (centres unmarked) [Compound 2-187] | 74 | 
43 | CC(=O)N=C1SC(c2ccccc2)C(C)N1CC(OC(C)=O)c1ccccc1 (centres unmarked) [Compound 1-42] | 94 | 
44 | CC1C(c2ccc(Cl)cc2)SC(=O)N1C(=O)NC(=O)c1ccccc1 (centres unmarked) [Compound 2-38] |  | Inhibition (%) (IV-cPLA(2); 1 μM): 87%
